Reference: ChEMBL document CHEMBL1201862, “PubChem BioAssay data set” (2004)
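All cell lines were grown in 96-well plates and treated with compound for 48 hours. GI50 marks 50% less growth.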 Activity calls are given as the source filed them. Rule as the data show it: active = GI50 up to about 1.1 µM and inactive = higher.

Columns and labels:
Test in all cases: NCI tumour cell line growth inhibition, 48 h
[1] = tested on: HCT-15
[2] = tested on: A549
[3] = tested on: U-251
[4] = tested on: NCI-H226
[5] = tested on: SK-MEL-2
[6] = tested on: HCT-116
[7] = tested on: ACHN
[8] = tested on: OVCAR-3
[9] = tested on: SK-OV-3
[10] = tested on: HL-60
[11] = tested on: OVCAR-4
[12] = tested on: RXF 393
[13] = tested on: NCI-H522
[14] = tested on: HOP-92
[15] = tested on: LOX IMVI
[16] = tested on: SR

Measured: GI50

CCOC(=O)C(C)(c1c(C)[nH]c2ccccc12)c1c(C)[nH]c2ccccc12
15 µM: [1]
inactive: [2] 19 µM | [3] 16.9 µM | [4] 13.5 µM | [5] 18.8 µM | [6] 12.5 µM | [7] 19.5 µM | [8] 16 µM | [9] 26 µM | [10] 12.1 µM | [11] 14.9 µM | [12] 12.9 µM

O=C1Cc2c([nH]c3ccccc23)-c2ccccc2N1 [PAULLONE]
inactive: [2] 36.4 µM | [13] 17.3 µM | [3] 39.6 µM | [4] 27.8 µM | [5] 43.3 µM | [6] 16.7 µM | [7] 36.6 µM | [14] 62.5 µM | [8] 23.1 µM | [9] > 100 µM | [10] 15.4 µM | [11] 43.1 µM | [12] 16.1 µM | [15] 16.5 µM
30.9 µM: [1]

Cc1ccc(NC(=O)C2C(=O)N(c3ccc(C)c(C)c3)C(=O)/C2=N/O)cc1C (stereo unspecified)
inactive: [2] > 100 µM | [13] > 100 µM | [3] > 100 µM | [4] > 100 µM | [5] > 100 µM | [6] > 100 µM | [7] > 100 µM | [14] > 100 µM | [8] > 100 µM | [9] > 100 µM | [10] > 100 µM | [12] > 100 µM | [15] 20.9 µM
> 100 µM: [1]

CCCC12Cc3c(OC)ccc(OC)c3CC(Cc3c(OC)ccc(OC)c31)C2=O (stereo unspecified)
inactive: [16] 7.29 µM | [2] > 100 µM | [13] 81.5 µM | [3] > 100 µM | [4] 24.8 µM | [5] > 100 µM | [6] 10.8 µM | [7] > 100 µM | [8] > 100 µM | [9] > 100 µM | [10] 7.21 µM | [11] 18.8 µM | [12] > 100 µM
> 100 µM: [1]

COc1ccc(C2=NN(C(=O)COc3ccc(Cl)cc3)C(O)(c3ccc(Cl)cc3)C2)cc1 (stereo unspecified)
inactive: [2] > 100 µM | [13] > 100 µM | [3] > 100 µM | [4] > 100 µM | [5] > 100 µM | [6] > 100 µM | [7] > 100 µM | [14] > 100 µM | [8] > 100 µM | [9] > 100 µM | [10] > 100 µM | [11] > 100 µM | [15] > 100 µM
> 100 µM: [1]

COC12OCCN(C)C1=CC(=O)C1(C)N=NCC12 (stereo unspecified)
> 100 µM: [1]
inactive: [2] > 100 µM | [13] > 100 µM | [3] > 100 µM | [4] > 100 µM | [6] > 100 µM | [7] > 100 µM | [14] > 100 µM | [8] > 100 µM | [9] > 100 µM | [12] > 100 µM | [15] > 100 µM

COC1C=CC23c4cc5c(cc4C(O)OC2CN(C)C3C1)OCO5 (stereo unspecified)
inactive: [16] 1.17 µM | [2] 2.4 µM | [13] 2 µM | [4] 1.64 µM | [7] 1.32 µM | [8] 1.76 µM | [11] 1.35 µM | [15] 1.29 µM
active: [6] 1.07 µM | [10] 1.08 µM

CC(C)(C)C(=O)CC(=O)C(C)(C)C.CC(C)(C)C(=O)CC(=O)C(C)(C)C.[SiH4]
active: [13] 0.573 µM | [3] 0.596 µM | [4] 0.0428 µM | [7] 0.689 µM | [14] 0.692 µM | [11] 0.612 µM
inactive: [2] 2.95 µM | [6] 1.26 µM | [8] 2.07 µM | [9] 1.87 µM
